pEC50: −log10 of the molar value.

One data set deals with Bmi-1 protein. The data set is described as follows: Sandwich ELISA Assay (Bmi-1 protein level in HT-1080 cells). The format is cell-based. In short, it runs like this: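 HT-1080 cells were treated with compounds (0.5% DMSO final) for 40-48 h at 37 °C. Lysates were assayed by sandwich ELISA: mouse anti-Bmi-1 capture, rabbit anti-Bmi-1 and HRP anti-rabbit detection, TMB read at OD450 (OD570 reference). Levels were quantified against a recombinant GST-Bmi-1 standard curve (125-8000 pg/mL).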

By pEC50 is commonly meant −log10 of the EC50, conventionally taken in molar units. The low end stands for a large EC50, the high end for a small EC50. As usually defined, the melting point is the temperature, or range, at which the solid turns liquid. `Cc1nc2ccc(F)cn2c1-c1cc(N)nc(Nc2ccc(OC(F)F)cc2)n1` [Cpd 2, N^2-[4-(difluoromethoxy)phenyl]-6-(6-fluoro-2-methylimidazo[1,2-a]pyridin-3-yl)pyrimidine-2,4-diamine] gave a melting point of 189 to 190 °C. The pEC50 with Bmi-1 protein is 8.00 to 9.00.

On to `Cc1nc2ccc(F)cc2n1-c1cc(N)nc(Nc2ccc(OC(F)F)cc2)n1` [Cpd 5, N^2-[4-(difluoromethoxy)phenyl]-6-(6-fluoro-2-methyl-1H-benzimidazol-1-yl)pyrimidine-2,4-diamine], for which the melting point was in the range of 141 to 143 °C. In addition, in the data set with Bmi-1 protein, the pEC50 was 7.00 to 8.00.

Regarding `CCc1nc2ccc(F)cc2n1-c1cc(N)nc(Nc2ccc(OC(F)F)c(F)c2)n1` [Cpd 11, N^2-[4-(difluoromethoxy)-3-fluorophenyl]-6-(2-ethyl-6-fluoro-1H-benzimidazol-1-yl)pyrimidine-2,4-diamine], the melting point was 159 to 161 °C. The pEC50 in the data set with Bmi-1 protein was 7.00 to 8.00.

The compound `Nc1cc(-n2c(C3CC3)nc3ccc(F)cc32)nc(Nc2ccc(OC(F)F)c(F)c2)n1` [Cpd 12, 6-(2-cyclopropyl-6-fluoro-1H-benzimidazol-1-yl)-N^2-[4-(difluoromethoxy)-3-fluorophenyl]pyrimidine-2,4-diamine] had a melting point of 185 to 186 °C. Moreover, the negative-log EC50 (pEC50) in the data set with Bmi-1 protein was 7.00 to 8.00.

In turn, `Nc1cc(-n2c(C(F)F)nc3ccc(F)cc32)nc(Nc2ccc(C(F)(F)F)cc2)n1` [Cpd 33, 6-[2-(difluoromethyl)-6-fluoro-1H-benzimidazol-1-yl]-N^2-[4-(trifluoromethyl)phenyl]pyrimidine-2,4-diamine] had a melting point of 201 to 203 °C. Further, the pEC50 with Bmi-1 protein is 7.00 to 8.00.

In turn, `Nc1cc(-c2c(C(F)F)nc3ccc(F)cn23)nc(Nc2ccc(C(F)(F)F)cc2)n1` [Cpd 63, 6-[2-(difluoromethyl)-6-fluoroimidazo[1,2-a]pyridin-3-yl]-N^2-[4-(trifluoromethyl)phenyl]pyrimidine-2,4-diamine] yielded a melting point of 242 to 245 °C. In the data set on Bmi-1 protein, the pEC50 was 5.52 to 7.00.

`Nc1cc(-n2c(C3CC3)nc3ccc(F)cc32)nc(Nc2ccc(OC(F)F)cc2)n1` [Cpd 70, 6-(2-cyclopropyl-6-fluoro-1H-benzimidazol-1-yl)-N^2-[4-(difluoromethoxy)phenyl]pyrimidine-2,4-diamine] yielded a melting point of 177 to 179 °C. In addition, the pEC50 in the data set on Bmi-1 protein was 7.00 to 8.00.

Take `CCc1nc2ccc(F)cc2n1-c1cc(N)nc(Nc2ccc(OC(F)F)cc2)n1` [Cpd 71, N^2-[4-(difluoromethoxy)phenyl]-6-(2-ethyl-6-fluoro-1H-benzimidazol-1-yl)pyrimidine-2,4-diamine]: the melting point fell in the range of 171 to 173 °C. For the same compound, the pEC50 in the data set with Bmi-1 protein was 7.00 to 8.00.

Compound `COCc1nc2ccccc2n1-c1cc(N)nc(Nc2ccc(C(F)(F)F)cc2)n1` [Cpd 73, 6-[2-(methoxymethyl)-1H-benzimidazol-1-yl]-N^2-[4-(trifluoromethyl)phenyl]pyrimidine-2,4-diamine] displayed a melting point of 209 to 211 °C. Besides, in the data set with Bmi-1 protein, the pEC50 is 5.52 to 7.00.

As for `CC(C)c1nc2ccccc2n1-c1cc(N)nc(Nc2ccc(C(F)(F)F)cc2)n1` [Cpd 74, 6-[2-(propan-2-yl)-1H-benzimidazol-1-yl]-N^2-[4-(trifluoromethyl)phenyl]pyrimidine-2,4-diamine], the melting point was in the range of 168 to 171 °C. In the data set with Bmi-1 protein, this compound gave a pEC50 of 5.52 to 7.00.

As for `COCc1nc2ccc(F)cc2n1-c1cc(N)nc(Nc2ccc(OC(F)F)cc2)n1` [Cpd 78, N^2-[4-(difluoromethoxy)phenyl]-6-[6-fluoro-2-(methoxymethyl)-1H-benzimidazol-1-yl]pyrimidine-2,4-diamine], the melting point fell in the range of 120 to 122 °C. In the data set with Bmi-1 protein, the negative-log EC50 (pEC50) was 7.00 to 8.00.

In the case of `CC(C)c1nc2ccc(F)cc2n1-c1cc(N)nc(Nc2ccc(OC(F)F)cc2)n1` [Cpd 79, N^2-[4-(difluoromethoxy)phenyl]-6-[6-fluoro-2-(propan-2-yl)-1H-benzimidazol-1-yl]pyrimidine-2,4-diamine], the melting point was 167 to 169 °C. In the data set with Bmi-1 protein, this compound had a pEC50 of 7.00 to 8.00.

`Nc1cc(-n2c(C3CC3)nc3cc(F)ccc32)nc(Nc2ccc(OC(F)F)cc2)n1` [Cpd 80, 6-(2-cyclopropyl-5-fluoro-1H-benzimidazol-1-yl)-N^2-[4-(difluoromethoxy)phenyl]pyrimidine-2,4-diamine] came in with a melting point of 136 to 138 °C. This compound gave a pEC50 with Bmi-1 protein of 7.00 to 8.00.

In turn, `CC(C)c1nc2cc(F)ccc2n1-c1cc(N)nc(Nc2ccc(OC(F)F)cc2)n1` [Cpd 81, N^2-[4-(difluoromethoxy)phenyl]-6-[5-fluoro-2-(propan-2-yl)-1H-benzimidazol-1-yl]pyrimidine-2,4-diamine] returned a melting point of 118 to 120 °C. Moreover, the negative logarithm of the EC50 (pEC50) in the data set with Bmi-1 protein was 5.52 to 7.00.

With `Cc1cccc(Nc2nc(N)cc(-c3c(C)nc4ccc(F)cn34)n2)c1` [Cpd 173, 6-(6-fluoro-2-methylimidazo[1,2-a]pyridin-3-yl)-N^2-(3-methylphenyl)pyrimidine-2,4-diamine], in the data set on Bmi-1 protein, the pEC50 was 5.52 to 7.00.

In the case of `Cc1nc2ccc(F)cc2n1-c1cc(N)nc(Nc2ccc(Cl)c(F)c2)n1` [Cpd 174, N^2-(4-chloro-3-fluorophenyl)-6-(6-fluoro-2-methyl-1H-benzimidazol-1-yl)pyrimidine-2,4-diamine], the pEC50 in the data set on Bmi-1 protein was 7.00 to 8.00.

Compound `COc1ccc(Nc2nc(N)c(F)c(-n3c(C)nc4ccccc43)n2)cc1` [Cpd 176, 5-fluoro-N^2-(4-methoxyphenyl)-6-(2-methyl-1H-benzimidazol-1-yl)pyrimidine-2,4-diamine] showed a pEC50 in the data set with Bmi-1 protein of 7.00 to 8.00.

In the data set on Bmi-1 protein, `Cc1nc2ccccc2n1-c1cc(N)nc(Nc2ccc(Cl)cc2)n1` [Cpd 177, N^2-(4-chlorophenyl)-6-(2-methyl-1H-benzimidazol-1-yl)pyrimidine-2,4-diamine] showed a pEC50 of 7.00 to 8.00.

In the data set on Bmi-1 protein, `Cc1ccc(Nc2nc(N)c(F)c(-n3c(C)nc4ccccc43)n2)cc1` [Cpd 178, 5-fluoro-6-(2-methyl-1H-benzimidazol-1-yl)-N^2-(4-methylphenyl)pyrimidine-2,4-diamine] had a pEC50 of 8.00 to 9.00.

On to `Cc1nc2ccccc2n1-c1cc(N)nc(Nc2ccc(Cl)c(F)c2)n1` [Cpd 179, N^2-(4-chloro-3-fluorophenyl)-6-(2-methyl-1H-benzimidazol-1-yl)pyrimidine-2,4-diamine], for which the pEC50 with Bmi-1 protein is 7.00 to 8.00.

`COc1ccc(Nc2nc(N)cc(-n3c(C)nc4cc(F)c(F)cc43)n2)cc1` [Cpd 180, 6-(5,6-difluoro-2-methyl-1H-benzimidazol-1-yl)-N^2-(4-methoxyphenyl)pyrimidine-2,4-diamine] showed a pEC50 in the data set on Bmi-1 protein of 8.00 to 9.00.

`Cc1ccc(Nc2nc(N)cc(-n3c(C)nc4cc(F)c(F)cc43)n2)cc1` [Cpd 181, 6-(5,6-difluoro-2-methyl-1H-benzimidazol-1-yl)-N^2-(4-methylphenyl)pyrimidine-2,4-diamine] had a pEC50 in the data set on Bmi-1 protein of 8.00 to 9.00.

`Cc1nc2cc(F)c(F)cc2n1-c1cc(N)nc(Nc2ccc(Cl)cc2)n1` [Cpd 182, N^2-(4-chlorophenyl)-6-(5,6-difluoro-2-methyl-1H-benzimidazol-1-yl)pyrimidine-2,4-diamine] gave a pEC50 with Bmi-1 protein of 7.00 to 8.00.

`Cc1ccc(Nc2nc(N)cc(-n3c(C)nc4cc(C)c(C)cc43)n2)cc1` [Cpd 183, N^2-(4-methylphenyl)-6-(2,5,6-trimethyl-1H-benzimidazol-1-yl)pyrimidine-2,4-diamine]: the pEC50 in the data set with Bmi-1 protein is 7.00 to 8.00.

Compound `Cc1ccc(Nc2nc(N)cc(-c3c(C)noc3C)n2)cc1` [Cpd 190, 6-(3,5-dimethyl-1,2-oxazol-4-yl)-N^2-(4-methylphenyl)pyrimidine-2,4-diamine] showed a pEC50 with Bmi-1 protein of 5.52 to 7.00.

Turning to `Cc1nc2cc(F)ccc2n1-c1cc(N)nc(Nc2ccc(Cl)cc2)n1` [Cpd 191, N^2-(4-chlorophenyl)-6-(5-fluoro-2-methyl-1H-benzimidazol-1-yl)pyrimidine-2,4-diamine], the pEC50 in the data set on Bmi-1 protein is 5.52 to 7.00.

In turn, `Cc1nc2cc(F)ccc2n1-c1cc(N)nc(Nc2ccc(Cl)c(F)c2)n1` [Cpd 192, N^2-(4-chloro-3-fluorophenyl)-6-(5-fluoro-2-methyl-1H-benzimidazol-1-yl)pyrimidine-2,4-diamine] gave a pEC50 with Bmi-1 protein of 5.52 to 7.00.

Compound `Cc1nc2cc(F)c(F)cc2n1-c1cc(N)nc(Nc2cccc(Cl)c2)n1` [Cpd 193, N^2-(3-chlorophenyl)-6-(5,6-difluoro-2-methyl-1H-benzimidazol-1-yl)pyrimidine-2,4-diamine] had a pEC50 in the data set with Bmi-1 protein of 5.52 to 7.00.

The compound `Cc1nc2cc(F)c(F)cc2n1-c1cc(N)nc(Nc2ccc([N+](=O)[O-])cc2)n1` [Cpd 194, 6-(5,6-difluoro-2-methyl-1H-benzimidazol-1-yl)-N^2-(4-nitrophenyl)pyrimidine-2,4-diamine] gave a pEC50 in the data set with Bmi-1 protein of 5.52 to 7.00.

Compound `Cc1cccc(Nc2nc(N)cc(-n3c(C)nc4cc(F)c(F)cc43)n2)c1` [Cpd 195, 6-(5,6-difluoro-2-methyl-1H-benzimidazol-1-yl)-N^2-(3-methylphenyl)pyrimidine-2,4-diamine] showed a pEC50 in the data set on Bmi-1 protein of 5.52 to 7.00.

Compound `COc1cccc(Nc2nc(N)cc(-n3c(C)nc4cc(F)c(F)cc43)n2)c1` [Cpd 196, 6-(5,6-difluoro-2-methyl-1H-benzimidazol-1-yl)-N^2-(3-methoxyphenyl)pyrimidine-2,4-diamine] gave a pEC50 in the data set with Bmi-1 protein of 5.52 to 7.00.

The compound `COc1ccc(Nc2nc(N)c(Cl)c(-n3c(C)nc4ccccc43)n2)cc1` [Cpd 197, 5-chloro-N^2-(4-methoxyphenyl)-6-(2-methyl-1H-benzimidazol-1-yl)pyrimidine-2,4-diamine] showed a pEC50 with Bmi-1 protein of 5.52 to 7.00.

In turn, `Cc1noc(C)c1-c1cc(N)nc(Nc2ccc(Cl)cc2)n1` [Cpd 198, N^2-(4-chlorophenyl)-6-(3,5-dimethylisoxazol-4-yl)pyrimidine-2,4-diamine] gave a pEC50 in the data set on Bmi-1 protein of 5.52 to 7.00.

For the compound `Cc1nc2cc(F)ccc2n1-c1cc(N)[n+]([O-])c(Nc2ccc(C(F)(F)F)cc2)n1` [Cpd 199, 6-(5-fluoro-2-methyl-1H-benzimidazol-1-yl)-N^2-[4-(trifluoromethyl)phenyl]pyrimidine-2,4-diamine 3-oxide], the negative-log EC50 (pEC50) in the data set on Bmi-1 protein is 5.52 to 7.00.

These data come from patent US10370371B2, “Substituted pyrimidine Bmi-1 inhibitors” (PTC Therapeutics, Inc., priority 2013, dated 2019).
